PubChem BioAssay (NCI)
Several values for one entry are separate records, joined by “and”; a condition that tells them apart may be missing. Identical values can stand only once.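 96-well plates; 48 h exposure; 5 concentrations. Endpoints by linear interpolation between flanking doses. Not reached: highest tested concentration assigned. At the GI50, growth is halved. Definition used: TGI = concentration required for complete inhibition of growth.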

Legend:
Assay in all cases: NCI tumour cell line growth inhibition, 48 h
[1] = tested on: MCF7 breast
[2] = tested on: DU-145 prostate
[3] = tested on: NCI/ADR-RES ovarian
[4] = tested on: MDA-MB-231 breast
[5] = tested on: DMS 114 small cell lung
[6] = tested on: LXFL 529 NSCLC
[7] = tested on: M19-MEL melanoma
[8] = tested on: DLD-1 colon
[9] = tested on: KM20L2 colon
[10] = tested on: DMS 273 small cell lung

Row | SMILES | GI50 [1] | TGI [1] | GI50 [2] | TGI [2] | GI50 [3] | TGI [3] | GI50 [4] | TGI [4] | TGI [5] | TGI [6] | TGI [7] | TGI [8] | TGI [9] | TGI [10]
1 | CC[C@H](CC#N)OC(=O)N[C@@H](C)c1cccc(NC(=O)Nc2ccc(-c3cnco3)c(OC)c2)c1 | 0.0458 µM | 18.2 µM | 0.0672 µM | 39.3 µM | 4.87 µM | 62.2 µM | 0.204 µM | > 89.5 µM | – | – | – | – | – | –
2 | O=C1C(Cl)=C(Nc2cccc(O)c2)C(=O)N1c1cc(Cl)c(Cl)cc1Cl | 20.3 µM | 54.7 µM | 17.4 µM | 39.3 µM | 24.9 µM | 55.7 µM | 12.7 µM | 29.5 µM | – | – | – | – | – | –
3 | Oc1ccc(CCCCCCc2ccc(O)cc2)cc1 | 6.91 µM | 22.3 µM | 4.8 µM | 15.2 µM | 3.99 µM | 17.4 µM | 9.66 µM | 25.9 µM | – | – | – | – | – | –
4 | CC(=O)Nc1ccc2c(c1)oc(=O)c1cc(NC(C)=O)ccc12 | 59.8 µM | > 100 µM | > 100 µM | > 100 µM | > 100 µM | > 100 µM | 48.5 µM | > 100 µM | – | – | – | – | – | –
5 | O=C1/C(=C/c2ccc(O)cc2)COc2ccc(-c3ccccc3)cc21 | 2.8 µM | 12.4 µM | 4.09 µM | 14.6 µM | 10.9 µM | 53.9 µM | 8.25 µM | 27.3 µM | – | – | – | – | – | –
6 | CCN(Cc1ccccc1OC)c1ccc(CO)c(Cl)c1 | 0.566 µM | 12.3 µM | 15.8 µM | 33.4 µM | 9.22 µM | 26.9 µM | 11.1 µM | 24.9 µM | – | – | – | – | – | –
7 | OCc1ccc(-c2nn(Cc3ccccc3)c3ccccc23)o1 | 4.08 µM and 1.69 µM | 24.8 µM and 57.1 µM | 16.6 µM and 17.8 µM | 36.9 µM and 43.8 µM | 19.2 µM and 11.5 µM | 67.1 µM and 49.6 µM | 19.6 µM and 22.2 µM | 60.3 µM and 55.2 µM | – | – | – | – | – | –
8 | CC(C)(C)c1ccc(S(=O)(=O)N[C@H]2CC[C@H]3[C@@H]4CCc5cc(OS(=O)(=O)O)ccc5[C@H]4CC[C@]23C)cc1 | 2.38 µM | 5.9 µM | 5.72 µM | 18 µM | 2.39 µM | 7.03 µM | 1.94 µM | 4.26 µM | – | – | – | – | – | –
9 | CC(CNC(Cc1ccccc1)c1ccccc1)NC(Cc1ccccc1)c1ccccc1 (configuration not stated) | 2.08 µM | 5.16 µM | 3.95 µM | 14.7 µM | 1.83 µM | 4.17 µM | 1.81 µM | 3.7 µM | – | – | – | – | – | –
10 | Clc1nc(Cl)c2ncn(Cc3ccc(COc4cccc(OCc5ccc(Cn6cnc7c(Cl)nc(Cl)nc76)cc5)c4)cc3)c2n1 | 28.9 µM | > 100 µM | 18.5 µM | 48.1 µM | 39.5 µM | > 100 µM | 17.4 µM | 53.2 µM | – | – | – | – | – | –
11 | CCOP(=O)(OCC)C(NC(c1ccccc1)c1ccccc1)c1cccc2ccccc12 (configuration not stated) | 4.04 µM | 24.3 µM | 20.4 µM | 39 µM | 9.79 µM | 22.6 µM | 1.56 µM | 9.63 µM | – | – | – | – | – | –
12 | N#C/C(=C\c1cccc(O)c1)C(N)=O | – | – | – | – | – | – | – | – | > 100 µM | > 100 µM | > 100 µM | > 100 µM | > 100 µM | > 100 µM
13 | Cc1nc2sc(C(=O)Nc3ccccc3)c(N)c2cc1C(=O)/C=C/c1ccccc1 | 1.53 µM | 5.51 µM | 1.81 µM | 3.6 µM | – | – | 3.41 µM | 11.3 µM | – | – | – | – | – | –
14 | COc1ccc2c(c1)OC(N(C(C)=O)C(C)=O)=C(C#N)C2c1ccc(F)cc1 (configuration not stated) | 0.593 µM | > 100 µM | 2.85 µM | > 100 µM | 0.953 µM | > 100 µM | 2.4 µM | > 100 µM | – | – | – | – | – | –
15 | CC(=O)OCC1OC(n2ccc(=O)[nH]c2=O)C(OC(C)=O)C1OC(C)=O (configuration not stated) | > 100 µM | > 100 µM | > 100 µM | > 100 µM | > 100 µM | > 100 µM | > 100 µM | > 100 µM | – | – | – | – | – | –
16 | COc1ccc(-c2cncn2-c2ccc(OC)cc2)cc1 | 17.4 µM | 41.2 µM | 14.9 µM | 32.5 µM | 19.3 µM | 42.9 µM | 21.3 µM | 71 µM | – | – | – | – | – | –
17 | COc1cc(-c2cn(-c3ccc(Cl)cc3)c(C)c2C(=O)C(F)(F)F)cc(OC)c1OC | 24.6 µM | > 100 µM | > 100 µM | > 100 µM | > 100 µM | > 100 µM | > 100 µM | > 100 µM | – | – | – | – | – | –
18 | CC(=O)c1cc([N+](=O)[O-])ccc1OCC(=O)O | – | – | – | – | – | – | – | – | > 100 µM | > 100 µM | > 100 µM | > 100 µM | > 100 µM | > 100 µM
19 | CCCCn1cnc2c(SC)ncnc21 | – | > 100 µM | – | > 100 µM | – | > 100 µM | – | > 100 µM | – | – | – | – | – | –
20 | CC1=C(O)C(=O)C2C(=O)C1C(C)C2c1ccc(Cl)cc1 (configuration not stated) | – | – | – | – | – | – | – | – | – | > 100 µM | > 100 µM | > 100 µM | – | > 100 µM
21 | O=C(O)c1cc(=O)c2[nH]c3ccccc3c2s1 | – | – | – | – | – | – | – | – | > 100 µM | > 100 µM | > 100 µM | > 100 µM | > 100 µM | –
22 | O=C(CSC(=S)N1CCOCC1)Nc1nc2c(s1)CCCC2 | – | – | – | – | – | – | – | – | > 100 µM | > 100 µM | > 100 µM | > 100 µM | > 100 µM | > 100 µM
23 | c1cnc2[nH]cc(-c3csc(-c4cn(CCCCN5CCOCC5)c5ccccc45)n3)c2c1 | 1.56 µM | 3.57 µM | 2.12 µM | 4.28 µM | 2.04 µM | 4.71 µM | 1.58 µM | 3.27 µM | – | – | – | – | – | –
24 | Clc1nc(Cl)c2c(ncn2C/C=C\Cn2cnc3c(Cl)nc(Cl)nc32)n1 | 1.45 µM | 3.17 µM | 1.53 µM | 2.86 µM | 2.69 µM | 11.1 µM | 1.88 µM | 3.65 µM | – | – | – | – | – | –
25 | COc1ccc(O)c(C#N)c1C#N | – | – | – | – | – | – | – | – | – | > 100 µM | > 100 µM | – | > 100 µM | > 100 µM
26 | CCC(CC)n1c(C)nc2c1C(=O)c1ccccc1C2=O | – | – | – | – | – | – | – | – | – | > 100 µM | 33.4 µM | > 100 µM | > 100 µM | > 100 µM
